Measurements published in patent publication US11497793B2, “Compositions and methods for treating glioblastoma” (TEL HASHOMER MEDICAL RESEARCH INFRASTRUCTURE AND SERVICES …, priority 2018, dated 2022).
The star is where a group is joined. Tos = Cc1ccc(S(=O)(=O)*)cc1; CH2Cl = ClC*

Assays:
[1] = system: CNS-1 brain tumor; assay: Survival in an animal model of GBM (CNS-1 cells injected into parietal cortex, intratumoral osmotic pump); type: in vivo; conditions: rat GBM model; osmotic pump into tumor for 14 days; TMZ 2 mg/rat, SIXAC 6.9 μg/rat (20 μg/kg/day); monitored until Day 25
Protocol: CNS-1 cells ([…]) were injected using stereotactic methods into the parietal cortex of rats (n=20, 16 rats survived the surgery).
Five days later (Day 5) the brains of the rats that survived the surgery were examined by MRI and the tumors scored on a scale of 1-3. For each rat, a catheter was placed in the brain tumor and attached to an osmotic pump (Alzet®) releasing one of the following treatments ([…], for 14 days): TMZ 2 mg/rat (n=7), or TMZ 2 mg/rat and SIXAC 6.9 μg/rat (20 μg/kg/day) (n=7) (TMZ was dissolved in saline and 0.1M acetate buffer pH5) (50:50 v/v ratio).
The groups were monitored daily for survival until Day 25.

[2] = system: CNS-1 glioma cell line; assay: Glioma cell proliferation measured by XTT; type: cell-based, rat; conditions: CNS-1 cells, 72 hours, TMZ 500 μM, SIXAC 10 μM, alone or combined
Protocol: The following experiment tested the effect of the chemotherapeutic drug temozolomide (“TMZ”) in combination with the peptide conjugate Tosyl-ATLDPR-chloromethylketone (tosyl-SEQ ID NO: 3-CMK) on the proliferation of glioma cells. The peptide conjugate contains 6 amino acids from the N-terminus of PAR-1: ATLDPR (SEQ ID NO: 3), and is denoted herein as “SIXAC”.
In particular, CNS-1 glioma cell line (rat) was treated with either TMZ (500 μM), SIXAC (10 μM) or a combination of TMZ (500 μM) and SIXAC (10 μM) for 72 hours. Proliferation was measured by means of XTT in comparison to non-treated cells (control).

[3] = system: PAR-1; assay: Western blot of PAR-1 level in glioma cells; type: cell-based, rat; conditions: CNS-1 cells, 24 h; TMZ 500 μM, SIXAC 10 μM, alone or combined; vs FCS-free medium with 0.2% DMSO
Protocol: (§1) More particularly, the expression of two proteins, PAR-1 and phosphorylated extracellular signal-regulated kinase (pERK), was examined in glioma cells incubated with TMZ, SIXAC or a combination of TMZ+SIXAC.
(§2) CNS-1 rat glioma cells were grown in Dulbecco's modified Eagle's medium (DMEM; Bet Haemek, Biological Industries, Israel) supplemented with 10% fetal bovine serum (Bet Haemek, Biological Industries, Israel) and 1% penicillin and streptomycin in a 5% CO2-humidified atmosphere.
(§3) CNS-1 cells were seeded and incubated for 24 h. Then the medium was replaced by FCS-free medium for additional 24 h. Next, the cells were treated for 24 h with SIXAC (10 μM), TMZ (500 μM), a combination of TMZ (500 μM) and SIXAC (10 μM) or a FCS-free medium (containing 0.2% DMSO) which was used as a control (n=4 for each treatment group). The cells were then washed with ice-cold PBS and lysed in RIPA buffer (containing in mM: 50 TRIS HCl pH 8, 150 NaCl, 1% NP-40, 0.5% sodium deoxycholate, and 0.1% SDS), a protease inhibitor cocktail (Merck Millipore 539134, 1:100), 0.1 mM sodium orthovanadate and 2 mM PMSF. The cells were scraped, collected and centrifuged (16,000 g×20 min) at 4° C. The supernatants were collected, and protein concentration was determined by means of a bicinchoninic acid (BCA) assay.

[4] = system: phosphorylated extracellular signal-regulated kinase (pERK); assay: Western blot of pERK level in glioma cells; type: cell-based, rat; conditions: CNS-1 cells, 24 h; TMZ 500 μM, SIXAC 10 μM, alone or combined; vs FCS-free medium with 0.2% DMSO
Protocol: as §1, §2, §3

[5] = system: C6 rat glioma cells; assay: Scratch (wound healing) assay of glioma cell migration; type: cell-based; conditions: 4 h of incubation, SIXAC 1 μM, TMZ 100 μM, alone or combined
Protocol: C6 rat glioma cells were grown in Dulbecco's modified Eagle's medium (DMEM; Bet Haemek, Biological Industries, Israel) supplemented with 10% fetal bovine serum (Bet Haemek, Biological Industries, Israel) and 1% penicillin and streptomycin in a 5% CO2-humidified atmosphere.
The effect of TMZ and SIXAC on the coordinated movement of C6 glioma cells was evaluated using a wound healing assay. The cells were seeded in 24-well plates at a density of 5×10^4 cells/well. Cells were cultured in FCS-free medium for 24 h. A wound was established by scraping using 10 μl pipette tip. Cells were washed twice with warm PBS and then fresh FCS-free medium was added, containing SIXAC (1 μM), TMZ (100 μM) or a combination of SIXAC and TMZ. Wells with FCS-free medium only or FCS-free medium+DMSO 0.2% were used as controls (marked as “control” and “control+DMSO”) Image acquisition of wound gap closure (%) was carried out following 4 h of incubation using a Nikon Eclipse microscope Images were analyzed using Fiji software.

## Cn1nnc2c(C(N)=O)ncn2c1=O [TMZ, temozolomide, reference compound]
[1]
  Median survival: 14 days
[2]
  cell proliferation compared to non-treated cells (control): no significant effect

## tosyl-Ala-Thr-Leu-Asp-Pro-Arg-chloromethylketone (Tos-ATLDPR-CH2Cl; SMILES Cc1ccc(S(=O)(=O)N[C@@H](C)C(=O)N[C@H](C(=O)N[C@@H](CC(C)C)C(=O)N[C@@H](CC(=O)O)C(=O)N2CCC[C@H]2C(=O)N[C@@H](CCCNC(=N)N)C(=O)CCl)[C@@H](C)O)cc1) [SIXAC, peptide conjugate containing 6 amino acids from the N-terminus of PAR-1 with tosyl and chloromethylketone moieties]
[3]
  PAR1 expression: did not cause any significant change
[4]
  pERK expression: did not cause any significant change
[2]
  cell proliferation compared to non-treated cells (control): minor effect
[5]
  wound-closure percentage: significantly decrease
